These results are taken from patent publication US9259022B2, “Sweetener” (Tate & Lyle Ingredients Americas LLC, priority 2013, dated 2016).

SMILES strings stand for the structures.

A short description of this experiment: Round table sweetness evaluation by test panelists (sucrose equivalent value, SEV). The experiment is classed as in vivo. To be noted: equal sweet 10 SEV concentrations in neutral pH water, room temperature; references 4%-14% sucrose. The method, then: Round table evaluations were performed with test panelists. Equal sweet 10 SEV concentrations in neutral pH water were made for allulose, AceK and fructose, as well as a composition comprising allulose, AceK and fructose. The components of the test compositions are described in the below tables. The mixed compositions were calculated using the Beidler mixture equation for the sweeteners. The Beidler mixture equation for sweeteners is as follows: […]
The concentration of each component in the mixture in ppm is divided by SEV (c/R) and is plotted against concentration, c. The slope of the linear regression is […]. The y-intercept of the linear regression multiplied by Rmax is the half-maximal sweetness concentration, 1/K. Rmax and 1/K are the two parameters used in the Beidler equation
The equal-molar mixture was tested against reference samples for the panelists to determine SEV values. […] The test samples were served in 2 ounce soufflé cups (approximately 60 ml) coded with 3-digit codes at room temperature. A two minute wait period between samples was enforced. Water and unsalted crackers was available for the panelists to clear their palates before and during testing. EyeQuestion, software distributed by Logic8 BV of Elst, The Netherlands, was used for ballot development and recording of results. Results were collected in EyeQuestion for calculating approximate SEV level of each test sample.
The test products analyzed in this experiment are described below in Table 1.
Regarding `O=C(CO)[C@@H](O)[C@H](O)[C@H](O)CO` [Fructose, fructose], the “Mean sucrose equivalent value (SEV), Mean 1” value (“Mean sucrose equivalent value” below) is 10.14 and the “Median sucrose equivalent value (SEV), Median 1” value (“Median sucrose equivalent value” for short) is 10.

Regarding `CC1=CC(=O)[N-]S(=O)(=O)O1.[K+]` [AceK, potassium salt of 6-methyl-1,2,3-oxathiazine-4(3H)-one 2,2-dioxide], the “Mean sucrose equivalent value” value is on record as 9.286 and the “Median sucrose equivalent value” value came to 8.

For `O=C(CO)C(O)C(O)C(O)CO` (stereo not drawn) [Allulose, allulose], the “Mean sucrose equivalent value” value is 10.14 and the “Median sucrose equivalent value” value is 10.
